# Laboratory results published in patent US20190298720A1, “USE OF SRC FAMILY KINASE INHIBITOR IN RIBOSOMAL DISORDER” (BIOXCEL CORPORATION, priority 2016, published 2019).
# Entries after “also recorded” stand apart in the source; their conditions may differ.
# Experiments:
# [1] = test system: RPS19 knock-down zebrafish embryos; test: Erythropoiesis in a zebrafish model of DBA using RPS19 morpholino (o-dianisidine staining); type: in vivo; conditions: for % improvement of erythropoiesis / % intensity of staining: injected 1 cell stage & aqueous exposure, RPS19 Mo
# Method: To evaluate the effect of Saracatinib, a Src kinase inhibitor (Lyn kinase) on improving erythropoiesis in a zebrafish model of DBA using RPS19 morpholino.
# Materials: Zebrafish (One celled stage), RPS19 morpholino (1 ng) and standard control morpholino were dissolved in ultrapure water. Saracatinib (Selleckchem; Cat no. 51006) was dissolved in 1% DMSO to achieve […], 50 μM and 100 μM concentrations. 0-dianisidine staining solution was made by dissolving 100 mg of 0-dianisidine in 70 mL ethanol, Acetate buffer (49 mL, 0.1 M Sodium acetate and 51 mL, 0.1 M acetic acid), 3% Hydrogen peroxide and ultrapure water; Phosphate buffer saline (PBS), Para formaldehyde (PFA), Tricaine methane sulfonate (ms-222) and Bleach solution (equal parts of 1% Potassium hydroxide and 3% Hydrogen peroxide) were used in the experimental procedures.
# (i) Control Mo, Egg water represents the zebrafish embryos which were injected with standard control morpholino, and 1% DMSO thriving in egg water, (ii) RPS19 Mo, Egg water represents wild type zebrafish embryos microinjected with 1 ng of RPS19 morpholino, and 1% DMSO; thriving in egg water, and (iii) RPS19 Mo+Saracatinib injected 1 cell stage and aqueous exposure represents zebrafish embryos which were microinjected with RPS19 morpholino and where Saracatinib was also microinjected at 1-cell stage along with adding Saracatinib in the aqueous phase or egg water.
# The wild type zebrafish with egg water were placed in separate wells and were microinjected with standard control morpholino and 1% DMSO, which acted as normal control (Control Mo, Egg water). The wild type zebrafish eggs were injected with 1 ng of RPS19 morpholino and 1% DMSO at 1-cell stage (RPS19 Mo, Egg water), and were incubated at 28.5° C. for 96 hours. Saracatinib was microinjected in the zebra fish at one cell stage and also exposed in the media (aqueous exposure) to achieve optimal concentrations of 25 μM, 50 μM and 100 μM (RPS19 Mo+Saracatinib injected 1 cell stage and aqueous exposure). The experiment was carried out in the 6-well plates for control (Control Mo, Egg water); morpholinos group (RPS19 Mo, Egg water) and Saracatinib treatment group (RPS19 Mo+Saracatinib injected 1 cell stage and aqueous exposure) respectively. The incubation of the zebrafish in various groups was carried out up to 96 hours at 28.5° C. and the embryos were visually observed for any phenotypic changes or mortality. The embryos were euthanized at the end of the study by using tricaine methane sulfonate (ms-222), and fixed in 4% PFA for 2 hours at room temperature. After fixing and washing the embryos thoroughly (3 times) in 1×PBS, o-dianisidine staining was carried out for 30 minutes at room temperature in the dark to assess haemoglobin concentration. Embryos were then washed 3 times in 1×PBS and incubated in bleach solution for 20 minutes at room temperature. Further washing of the embryos were also carried out in 1×PBS to avoid any unnecessary staining. Quantitation of o-dianisidine staining in zebrafish embryos.
# Haemoglobin quantification/total amount of the o-dianisidine staining on total embryo was calculated by using Image J software. The total embryo area and the intensity was noted by the software, by manually tracing the exact area of the embryo. The ratios of the intensity and the total embryo area was thus used to calculate the intensity per unit area which is then compared across groups (Control Mo, Egg water; RPS19 Mo, Egg water and RPS19 Mo+Saracatinib injected 1 cell stage and aqueous exposure). Percent intensity of staining of embryos was considered to be proportional to the haemoglobin concentration in each embryo and thus % improvement or recovery of erythropoiesis by administration of Saracatinib was further calculated.
# Lyn kinase = Lyn kinase activity in RPS19 knock-down zebrafish embryos; type: in vivo; conditions: 25 μM, 50 μM and 100 μM
# [2] = test system: Id1 expression in lung cancer cell lines; conditions: cited from earlier work
smiles,measurement,setting,value
"CN1CCN(CCOc2cc(OC3CCOCC3)c3c(Nc4c(Cl)ccc5c4OCO5)ncnc3c2)CC1 [Saracatinib, N-(5-chloro-1,3-benzodioxol-4-yl)-7-[2-(4-methyl-1-piperazinyl)ethoxy]-5-[(tetrahydro-2H-pyran-4-yl)oxy]-4-quinazolinamine]",Erythropoiesis / erythropoietic defect (in words),"[1]; 25 μM, 50 μM and 100 μM, compared to RPS19 injected morpholinos, 96 hpf, o-dianisidine staining",rescue in haemopoietic defect; also recorded: dose related improvement in erythropoiesis; also recorded: improvement in the erythropoietic defect
same,% improvement of erythropoiesis,"[1]; Saracatinib 25 μM, 96 hpf",10.49%
same,% intensity of staining,"[1]; Saracatinib 25 μM, 96 hpf",2.646%
same,% improvement of erythropoiesis,"[1]; Saracatinib 50 μM, 96 hpf",36.75%
same,% intensity of staining,"[1]; Saracatinib 50 μM, 96 hpf",3.557%
same,% improvement of erythropoiesis,"[1]; Saracatinib 100 μM, 96 hpf",19.82%
same,% intensity of staining,"[1]; Saracatinib 100 μM, 96 hpf",3.18%
same,Haemoglobin concentration (in words),[1]; compared to zebrafish treated with RPS19 morpholino,increased haemoglobin concentration
same,Lyn kinase activity,Lyn kinase,decrease in the Lyn kinase activity
same,Id1 expression,[2],downregulates the Id1 expression
